Measurements published in patent US12258328B2, “6-membered heteroaryl-containing aminopyridine compounds as EGFR inhibitors” (YUHAN CORPORATION, priority 2021, dated 2025).
Like-named read-outs stand apart in the source and are kept apart here.

Key:
EGFR del19/T790M/C797S = EGFR del19/T790M/C797S (Homo sapiens, UniProt P00533, C797S/DEL746-750/T790M); test: Biochemical EGFR kinase assay (Lance Ultra TR-FRET), triple mutant del19/T790M/C797S
Summary of the method: (§1)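 In this biochemical assay, phosphorylation after a one-hour room-temperature reaction was detected with europium-labelled anti-phosphopeptide antibody at 2 nM final concentration.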

EGFR L858R/T790M/C797S = EGFR L858R/T790M/C797S (Homo sapiens, UniProt P00533, C797S/L858R/T790M); test: Biochemical EGFR kinase assay (Lance Ultra TR-FRET), triple mutant L858R/T790M/C797S
Chain of EGFR L858R/T790M/C797S (P00533 25-1210 T790M/C797S/L858R): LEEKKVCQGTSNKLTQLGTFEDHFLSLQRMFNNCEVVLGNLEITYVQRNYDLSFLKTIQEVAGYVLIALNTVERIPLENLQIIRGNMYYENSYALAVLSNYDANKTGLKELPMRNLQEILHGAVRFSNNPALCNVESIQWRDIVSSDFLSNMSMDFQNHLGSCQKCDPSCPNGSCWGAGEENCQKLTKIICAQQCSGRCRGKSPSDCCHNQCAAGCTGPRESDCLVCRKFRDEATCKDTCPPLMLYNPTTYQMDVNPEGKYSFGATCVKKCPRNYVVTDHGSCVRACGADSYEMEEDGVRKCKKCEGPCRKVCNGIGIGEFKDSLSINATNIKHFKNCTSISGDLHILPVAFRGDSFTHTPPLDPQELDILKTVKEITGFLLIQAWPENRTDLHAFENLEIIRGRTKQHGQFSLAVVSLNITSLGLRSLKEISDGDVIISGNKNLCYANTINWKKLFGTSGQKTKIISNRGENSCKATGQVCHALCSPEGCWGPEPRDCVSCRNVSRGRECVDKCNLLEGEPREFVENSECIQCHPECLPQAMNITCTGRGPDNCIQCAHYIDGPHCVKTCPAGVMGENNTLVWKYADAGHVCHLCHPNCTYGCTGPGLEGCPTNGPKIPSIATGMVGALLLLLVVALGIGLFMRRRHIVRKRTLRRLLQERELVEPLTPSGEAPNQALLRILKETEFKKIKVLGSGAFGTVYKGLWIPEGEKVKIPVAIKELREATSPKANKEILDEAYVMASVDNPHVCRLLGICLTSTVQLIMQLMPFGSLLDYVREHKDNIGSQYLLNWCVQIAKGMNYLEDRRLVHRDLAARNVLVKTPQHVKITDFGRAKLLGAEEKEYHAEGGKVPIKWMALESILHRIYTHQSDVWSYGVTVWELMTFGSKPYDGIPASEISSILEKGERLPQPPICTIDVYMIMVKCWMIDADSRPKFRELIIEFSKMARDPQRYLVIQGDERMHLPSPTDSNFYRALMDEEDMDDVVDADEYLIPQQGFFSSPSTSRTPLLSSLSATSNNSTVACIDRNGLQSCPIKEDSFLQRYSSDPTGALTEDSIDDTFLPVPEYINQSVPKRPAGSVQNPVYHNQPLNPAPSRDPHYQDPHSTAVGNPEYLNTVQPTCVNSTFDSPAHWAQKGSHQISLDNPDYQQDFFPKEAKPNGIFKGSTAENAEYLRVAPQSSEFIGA
Summary of the method: as §1

EGFR del19/C797S = EGFR del19/C797S (Homo sapiens, UniProt P00533, C797S/DEL746-750); test: Biochemical EGFR kinase assay (Lance Ultra TR-FRET), double mutant del19/C797S
Chain of EGFR del19/C797S (P00533 with tags, fused parts or gaps DEL746-750/C797S): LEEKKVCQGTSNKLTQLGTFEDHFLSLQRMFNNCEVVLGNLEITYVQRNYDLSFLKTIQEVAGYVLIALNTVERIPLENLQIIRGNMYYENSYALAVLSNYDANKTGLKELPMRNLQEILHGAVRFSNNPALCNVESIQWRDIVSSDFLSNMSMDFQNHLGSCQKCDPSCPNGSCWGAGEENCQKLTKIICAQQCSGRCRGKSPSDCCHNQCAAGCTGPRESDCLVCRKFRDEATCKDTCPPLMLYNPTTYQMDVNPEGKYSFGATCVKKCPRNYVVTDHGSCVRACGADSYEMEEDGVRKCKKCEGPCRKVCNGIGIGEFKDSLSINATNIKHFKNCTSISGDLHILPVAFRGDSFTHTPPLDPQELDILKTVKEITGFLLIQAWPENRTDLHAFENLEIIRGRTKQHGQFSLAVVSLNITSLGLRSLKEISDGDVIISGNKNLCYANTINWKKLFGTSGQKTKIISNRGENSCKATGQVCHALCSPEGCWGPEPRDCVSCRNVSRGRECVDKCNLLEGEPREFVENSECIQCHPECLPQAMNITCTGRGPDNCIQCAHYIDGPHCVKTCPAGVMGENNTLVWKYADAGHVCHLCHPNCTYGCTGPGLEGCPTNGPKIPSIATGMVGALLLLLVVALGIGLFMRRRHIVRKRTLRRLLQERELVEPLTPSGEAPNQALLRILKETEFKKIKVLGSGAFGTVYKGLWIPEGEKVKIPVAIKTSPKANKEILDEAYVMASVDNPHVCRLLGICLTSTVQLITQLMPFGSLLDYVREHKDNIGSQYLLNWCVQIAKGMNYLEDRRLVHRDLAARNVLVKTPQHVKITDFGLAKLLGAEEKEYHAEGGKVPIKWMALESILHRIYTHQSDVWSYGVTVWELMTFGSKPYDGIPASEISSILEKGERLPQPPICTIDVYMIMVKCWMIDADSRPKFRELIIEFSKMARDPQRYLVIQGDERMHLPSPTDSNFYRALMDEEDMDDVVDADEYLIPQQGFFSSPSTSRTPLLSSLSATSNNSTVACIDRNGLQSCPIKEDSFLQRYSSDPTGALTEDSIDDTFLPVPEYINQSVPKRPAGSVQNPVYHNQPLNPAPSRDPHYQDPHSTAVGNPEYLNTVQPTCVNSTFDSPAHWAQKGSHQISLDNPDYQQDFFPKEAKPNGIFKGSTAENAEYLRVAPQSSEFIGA
Summary of the method: as §1

EGFR L858R/C797S = EGFR L858R/C797S (Homo sapiens, UniProt P00533, C797S/L858R); test: Biochemical EGFR kinase assay (Lance Ultra TR-FRET), double mutant L858R/C797S
Chain of EGFR L858R/C797S (P00533 25-1210 C797S/L858R): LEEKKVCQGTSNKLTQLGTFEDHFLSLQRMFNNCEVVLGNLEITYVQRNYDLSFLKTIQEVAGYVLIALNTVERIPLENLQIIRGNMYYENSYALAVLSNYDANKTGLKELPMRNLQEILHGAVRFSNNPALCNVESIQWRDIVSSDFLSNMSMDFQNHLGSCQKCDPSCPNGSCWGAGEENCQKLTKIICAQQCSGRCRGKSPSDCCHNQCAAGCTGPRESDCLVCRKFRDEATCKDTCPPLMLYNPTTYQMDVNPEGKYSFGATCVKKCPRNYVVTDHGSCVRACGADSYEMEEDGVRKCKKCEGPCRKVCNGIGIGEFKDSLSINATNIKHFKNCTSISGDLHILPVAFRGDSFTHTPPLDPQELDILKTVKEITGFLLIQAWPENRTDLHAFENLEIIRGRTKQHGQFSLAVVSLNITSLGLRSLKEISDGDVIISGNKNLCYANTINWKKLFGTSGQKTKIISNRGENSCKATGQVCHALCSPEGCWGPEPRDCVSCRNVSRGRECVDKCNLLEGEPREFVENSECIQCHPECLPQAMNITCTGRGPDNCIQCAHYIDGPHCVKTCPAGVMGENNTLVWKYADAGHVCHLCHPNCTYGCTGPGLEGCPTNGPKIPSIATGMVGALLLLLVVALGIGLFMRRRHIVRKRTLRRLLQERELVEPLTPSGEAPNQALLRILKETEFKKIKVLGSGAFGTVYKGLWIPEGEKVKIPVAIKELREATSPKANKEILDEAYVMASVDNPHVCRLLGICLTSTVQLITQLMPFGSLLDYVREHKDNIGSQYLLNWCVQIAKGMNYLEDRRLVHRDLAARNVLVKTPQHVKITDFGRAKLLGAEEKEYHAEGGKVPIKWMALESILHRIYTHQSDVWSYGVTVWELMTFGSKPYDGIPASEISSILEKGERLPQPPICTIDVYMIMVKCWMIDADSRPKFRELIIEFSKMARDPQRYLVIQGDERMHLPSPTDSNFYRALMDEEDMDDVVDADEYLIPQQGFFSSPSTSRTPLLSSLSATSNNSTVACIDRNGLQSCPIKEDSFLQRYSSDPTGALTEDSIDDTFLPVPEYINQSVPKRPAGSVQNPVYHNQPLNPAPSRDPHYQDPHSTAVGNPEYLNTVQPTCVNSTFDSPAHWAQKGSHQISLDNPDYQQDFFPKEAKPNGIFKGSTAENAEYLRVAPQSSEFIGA
Summary of the method: as §1

EGFR wildtype = EGFR wildtype (Homo sapiens, UniProt P00533); test: Biochemical EGFR kinase assay (Lance Ultra TR-FRET), wildtype
Chain of EGFR wildtype (P00533 25-1210): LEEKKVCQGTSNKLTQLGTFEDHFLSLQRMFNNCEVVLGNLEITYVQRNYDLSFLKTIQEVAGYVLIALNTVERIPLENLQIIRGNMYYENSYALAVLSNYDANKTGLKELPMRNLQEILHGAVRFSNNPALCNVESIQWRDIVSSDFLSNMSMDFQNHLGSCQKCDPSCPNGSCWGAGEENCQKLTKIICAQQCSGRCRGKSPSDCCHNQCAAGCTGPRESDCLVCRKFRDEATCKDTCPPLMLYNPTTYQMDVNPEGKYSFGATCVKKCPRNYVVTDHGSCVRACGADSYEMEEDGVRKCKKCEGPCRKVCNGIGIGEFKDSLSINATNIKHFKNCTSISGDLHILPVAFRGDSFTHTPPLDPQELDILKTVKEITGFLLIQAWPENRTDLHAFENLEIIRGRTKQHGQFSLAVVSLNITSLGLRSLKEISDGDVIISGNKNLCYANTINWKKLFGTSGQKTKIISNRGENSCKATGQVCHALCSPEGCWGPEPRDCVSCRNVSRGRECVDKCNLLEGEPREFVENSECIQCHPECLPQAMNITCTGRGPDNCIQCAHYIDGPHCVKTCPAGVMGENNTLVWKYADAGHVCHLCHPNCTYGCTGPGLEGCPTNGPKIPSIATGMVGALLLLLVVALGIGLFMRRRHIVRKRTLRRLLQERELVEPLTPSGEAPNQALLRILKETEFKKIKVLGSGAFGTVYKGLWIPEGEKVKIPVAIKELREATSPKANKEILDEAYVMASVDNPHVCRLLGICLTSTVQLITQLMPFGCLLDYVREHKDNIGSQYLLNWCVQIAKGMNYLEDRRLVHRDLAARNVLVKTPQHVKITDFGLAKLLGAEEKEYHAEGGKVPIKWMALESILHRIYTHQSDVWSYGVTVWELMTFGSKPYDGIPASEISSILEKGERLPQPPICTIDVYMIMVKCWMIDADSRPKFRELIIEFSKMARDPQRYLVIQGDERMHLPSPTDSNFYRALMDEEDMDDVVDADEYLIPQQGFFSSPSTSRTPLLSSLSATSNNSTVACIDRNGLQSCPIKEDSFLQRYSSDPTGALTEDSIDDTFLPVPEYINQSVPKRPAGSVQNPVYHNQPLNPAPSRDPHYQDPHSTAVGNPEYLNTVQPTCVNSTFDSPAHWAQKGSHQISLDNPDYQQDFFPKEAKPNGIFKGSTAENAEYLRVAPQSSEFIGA
Summary of the method: as §1

[1] = ATP at Km, read-out: IC50 del19/T790M/C797S, Km ATP
[2] = IC50 del19/T790M/C797S, 100 μM ATP
[3] = ATP at Km, read-out: IC50 L858R/T790M/C797S, Km ATP
[4] = IC50 L858R/T790M/C797S, 100 μM ATP
[5] = ATP at Km, read-out: IC50 del19/C797S, Km ATP
[6] = ATP at Km, read-out: IC50 L858R/C797S, Km ATP
[7] = ATP at Km, read-out: IC50 WT, Km ATP
[8] = IC50 del19/T790M/C797S (nM) 100 μM ATP, 100 μM ATP
[9] = Km ATP, read-out: IC50 del19/T790M/C797S (nM) Km ATP
[10] = IC50 L858R/T790M/C797S (nM) 100 μM ATP, 100 μM ATP
[11] = Km ATP, read-out: IC50 L858R/T790M/C797S (nM) Km ATP
[12] = IC50 del19/C797S (nM) 100 μM ATP, 100 μM ATP
[13] = Km ATP, read-out: IC50 del19/C797S (nM) Km ATP
[14] = IC50 L858R/C797S (nM) 100 μM ATP, 100 μM ATP
[15] = Km ATP, read-out: IC50 L858R/C797S (nM) Km ATP
[16] = IC50 WT (nM) 100 μM ATP, 100 μM ATP
[17] = Km ATP, read-out: IC50 WT (nM) Km ATP

SMILES	IC50 (EGFR del19/T790M/C797S; [1])	IC50 (EGFR del19/T790M/C797S; [2])	IC50 (EGFR L858R/T790M/C797S; [3])	IC50 (EGFR L858R/T790M/C797S; [4])	IC50 (EGFR del19/C797S; [5])	IC50 (EGFR del19/C797S; IC50 del19/C797S, 100 μM ATP)	IC50 (EGFR L858R/C797S; [6])	IC50 (EGFR L858R/C797S; IC50 L858R/C797S, 100 μM ATP)	IC50 (EGFR wildtype; [7])	IC50 (EGFR wildtype; IC50 WT, 100 μM ATP)	IC50 (EGFR del19/T790M/C797S; [8])	IC50 (EGFR del19/T790M/C797S; [9])	IC50 (EGFR L858R/T790M/C797S; [10])	IC50 (EGFR L858R/T790M/C797S; [11])	IC50 (EGFR del19/C797S; [12])	IC50 (EGFR del19/C797S; [13])	IC50 (EGFR L858R/C797S; [14])	IC50 (EGFR L858R/C797S; [15])	IC50 (EGFR wildtype; [16])	IC50 (EGFR wildtype; [17])
CC(C)(O)[C@H]1CC[C@@H](Nc2cc(Nc3ccnc(-c4cnn(S(=O)(=O)C5CC5)c4)n3)ncc2-c2ccc(C(=O)N3CCOCC3)cn2)CC1 [Example 201, (6′-((2-(1-(Cyclopropylsulfonyl)-1H-pyrazol-4-yl)pyrimidin-4-yl)amino)-4′-(((1s,4s)-4-(2-hydroxypropan-2-yl)cyclohexyl)amino)-[2,3′-bipyridin]-5-yl)(morpholino)methanone]	0.3 nM	0.4 nM	0.1 nM	0.4 nM	0.5 nM	0.6 nM	0.5 nM	1.8 nM	2.2 nM	1040 nM	–	–	–	–	–	–	–	–	–	–
CN(C)C[C@H]1CC[C@@H](Nc2cc(Nc3ccnc(-c4cnn(S(=O)(=O)C5CC5)c4)n3)ncc2-c2cc(C(C)(C)O)c(F)cn2)CC1 [Example 107, 2-(6′-((2-(1-(Cyclopropylsulfonyl)-1H-pyrazol-4-yl)pyrimidin-4-yl)amino)-4′-(((1s,4s)-4-((dimethylamino)methyl)cyclohexyl)amino)-5-fluoro-[2,3′-bipyridin]-4-yl)propan-2-ol]	–	–	–	–	–	–	–	–	–	–	0.4 nM	0.3 nM	0.2 nM	0.2 nM	0.5 nM	0.1 nM	1.8 nM	0.1 nM	327 nM	0.4 nM
C[C@]1(O)CC[C@@H](Nc2cc(Nc3ccnc(-c4cnn(S(=O)(=O)C5CC5)c4)n3)ncc2-c2cnc(OC3CCN(CCF)CC3)cn2)CC1 [Example 153, (1s,4s)-4-((2-((2-(1-(Cyclopropylsulfonyl)-1H-pyrazol-4-yl)pyrimidin-4-yl)amino)-5-(5-((1-(2-fluoroethyl)piperidin-4-yl)oxy)pyrazin-2-yl)pyridin-4-yl)amino)-1-methylcyclohexan-1-ol]	0.4 nM	–	0.1 nM	–	0.2 nM	–	0.2 nM	–	3.2 nM	–	–	–	–	–	–	–	–	–	–	–
C[C@]1(O)CC[C@@H](Nc2cc(Nc3ccnc(-c4cnn(S(=O)(=O)C5CC5)c4)n3)ncc2-c2ccc(CC(F)(F)F)cn2)CC1 [Example 218, (1s,4s)-4-((6′-((2-(1-(Cyclopropylsulfonyl)-1H-pyrazol-4-yl)pyrimidin-4-yl)amino)-5-(2,2,2-trifluoroethyl)-[2,3′-bipyridin]-4′-yl)amino)-1-methylcyclohexan-1-ol]	2.1 nM	0.6 nM	0.7 nM	1.8 nM	–	7.1 nM	3.6 nM	59.4 nM	10.3 nM	> 10000 nM	–	–	–	–	–	–	–	–	–	–
CN(C)CCOc1cnc(-c2cnc(Nc3ccnc(-c4cnn(S(=O)(=O)C5CC5)c4)n3)cc2N[C@H]2CC[C@@H](C(C)(C)O)CC2)cn1 [Example 117, 2-((1s,4s)-4-((2-((2-(1-(Cyclopropylsulfonyl)-1H-pyrazol-4-yl)pyrimidin-4-yl)amino)-5-(5-(2-(dimethylamino)ethoxy)pyrazin-2-yl)pyridin-4-yl)amino)cyclohexyl)propan-2-ol]	–	–	–	–	–	–	–	–	–	–	0.4 nM	0.2 nM	0.1 nM	0.1 nM	0.5 nM	0.3 nM	0.5 nM	0.2 nM	6500 nM	1.9 nM
CC(C)(O)[C@H]1CC[C@@H](Nc2cc(Nc3ccnc(-c4cnn(S(=O)(=O)C5CC5)c4)n3)ncc2-c2ccc(OCCN3CCC3)cn2)CC1 [Example 217, 2-((1s,4s)-4-((5-(2-(Azetidin-1-yl)ethoxy)-6′-((2-(1-(cyclopropylsulfonyl)-1H-pyrazol-4-yl)pyrimidin-4-yl)amino)-[2,3′-bipyridin]-4′-yl)amino)cyclohexyl)propan-2-ol]	0.8 nM	0.7 nM	0.3 nM	0.3 nM	0.2 nM	0.3 nM	0.2 nM	0.4 nM	0.8 nM	118 nM	–	–	–	–	–	–	–	–	–	–
CC1(O)CCC(Nc2cc(Nc3ccnc(-c4cnn(S(=O)(=O)C5CC5)c4)n3)ncc2-c2cc(NC3CC(O)C3)ccn2)CC1 (stereo not drawn) [Example 283, (1s,4s)-4-((6′-((2-(1-(Cyclopropylsulfonyl)-1H-pyrazol-4-yl)pyrimidin-4-yl)amino)-4-((3-hydroxycyclobutyl)amino)-[2,3′-bipyridin]-4′-yl)amino)-1-methylcyclohexan-1-ol]	–	0.1 nM	–	0.4 nM	–	0.6 nM	–	2.3 nM	–	1970 nM	–	–	–	–	–	–	–	–	–	–
C[C@]1(O)CC[C@@H](Nc2cc(Nc3ccnc(-c4cnn(S(=O)(=O)C5CC5)c4)n3)ncc2-c2ncccc2OCC(F)(F)F)CC1 [Example 333, (1s,4s)-4-((6′-((2-(1-(Cyclopropylsulfonyl)-1H-pyrazol-4-yl)pyrimidin-4-yl)amino)-3-(2,2,2-trifluoroethoxy)-[2,3′-bipyridin]-4′-yl)amino)-1-methylcyclohexan-1-ol]	–	–	–	–	–	–	–	–	–	–	–	4.1 nM	–	2.6 nM	–	460 nM	–	795 nM	–	117 nM
CC(=O)c1cccc(-c2cnc(Nc3ccnc(-c4cnn(S(=O)(=O)C5CC5)c4)n3)cc2N[C@H]2CC[C@@](C)(O)CC2)n1 [Example 18, 1-(6′-((2-(1-(Cyclopropylsulfonyl)-1H-pyrazol-4-yl)pyrimidin-4-yl)amino)-4′-(((1s,4s)-4-hydroxy-4-methylcyclohexyl)amino)-[2,3′-bipyridin]-6-yl)ethan-1-one]	–	–	–	–	–	–	–	–	–	–	0.7 nM	–	3.1 nM	–	8.7 nM	–	113 nM	–	> 10000 nM	–
CC(C)(O)[C@H]1CC[C@@H](Nc2cc(Nc3ccnc(-c4cnn(S(=O)(=O)C5CC5)c4)n3)ncc2-c2cc(NC3CC(F)(F)C3)ccn2)CC1 [Example 215, 2-((1s,4s)-4-((6′-((2-(1-(Cyclopropylsulfonyl)-1H-pyrazol-4-yl)pyrimidin-4-yl)amino)-4-((3,3-difluorocyclobutyl)amino)-[2,3′-bipyridin]-4′-yl)amino)cyclohexyl)propan-2-ol]	9.1 nM	25.4 nM	7.6 nM	17.5 nM	7.8 nM	36.4 nM	13.6 nM	46.4 nM	21.4 nM	6110 nM	–	–	–	–	–	–	–	–	–	–
CS(=O)(=O)c1ccc(-c2cnc(Nc3ccnc(-c4cnn(S(=O)(=O)C5CC5)c4)n3)cc2N[C@H]2CC[C@@H](NCCF)CC2)nc1 [Example 157, N^6′-(2-(1-(Cyclopropylsulfonyl)-1H-pyrazol-4-yl)pyrimidin-4-yl)-N^4′-((1s,4s)-4-((2-fluoroethyl)amino)cyclohexyl)-5-(methylsulfonyl)-[2,3′-bipyridine]-4′,6′-diamine]	0.1 nM	0.1 nM	0.1 nM	0.1 nM	0.8 nM	0.6 nM	0.8 nM	11.2 nM	6.9 nM	2930 nM	–	–	–	–	–	–	–	–	–	–
CC(C)(O)[C@H]1CC[C@@H](Nc2cc(Nc3ccnc(-c4cnn(S(=O)(=O)C5CC5)c4)n3)ncc2-c2ccc(N3CCOCC3)cn2)CC1 [Example 45, 2-((1s,4s)-4-((6′-((2-(1-(Cyclopropylsulfonyl)-1H-pyrazol-4-yl)pyrimidin-4-yl)amino)-5-morpholino-[2,3′-bipyridin]-4′-yl)amino)cyclohexyl)propan-2-ol]	–	–	–	–	–	–	–	–	–	–	1.7 nM	–	2.6 nM	–	1.7 nM	–	4.2 nM	–	602 nM	–
C[C@]1(O)CC[C@@H](Nc2cc(Nc3ccnc(-c4cnn(S(=O)(=O)C5CC5)c4)n3)ncc2-c2cccc(CC(F)(F)F)n2)CC1 [Example 293, (1s,4s)-4-((6′-((2-(1-(Cyclopropylsulfonyl)-1H-pyrazol-4-yl)pyrimidin-4-yl)amino)-6-(2,2,2-trifluoroethyl)-[2,3′-bipyridin]-4′-yl)amino)-1-methylcyclohexan-1-ol]	0.7 nM	3.4 nM	0.7 nM	–	9.6 nM	16.2 nM	15.4 nM	63 nM	138 nM	1540 nM	–	–	–	–	–	–	–	–	–	–
CN1CCC(Oc2ccc(-c3cnc(Nc4ccnc(-c5cnn(S(=O)(=O)C6CC6)c5)n4)cc3NC3CCC(F)CC3)nc2)CC1 (stereo not drawn) [Example 254, N^6′-(2-(1-(Cyclopropylsulfonyl)-1H-pyrazol-4-yl)pyrimidin-4-yl)-N^4′-(4-fluorocyclohexyl)-5-((1-methylpiperidin-4-yl)oxy)-[2,3′-bipyridine]-4′,6′-diamine]	0.04 nM	–	0.02 nM	–	0.1 nM	–	0.4 nM	–	0.7 nM	–	–	–	–	–	–	–	–	–	–	–
